Source: ChEMBL document CHEMBL3272306, “Synthesis and antimicrobial activity of some novel heterocycles. Azolo-as-triazines” (1976)
In brackets after ≈: the same amount, converted by molar mass.

Experiments:
Assay type in all cases: functional
Escherichia coli = test: Antibacterial activity against clinical isolate Escherichia coli assessed as prevention of visible growth at 25 degC after 24 hrs by broth dilution assay
Pseudomonas aeruginosa = test: Antibacterial activity against clinical isolate Pseudomonas aeruginosa assessed as prevention of visible growth at 25 degC after 24 hrs by broth dilution assay
Staphylococcus aureus = test: Antibacterial activity against clinical isolate Staphylococcus aureus assessed as prevention of visible growth at 25 degC after 24 hrs by broth dilution assay
[1] = tested on: Trichophyton mentagrophytes; test: Antifungal activity against clinical isolate Trichophyton mentagrophytes assessed as prevention of visible growth at 30 degC after 48 hrs by broth dilution assay
Candida albicans = test: Antifungal activity against clinical isolate Candida albicans assessed as prevention of visible growth at 25 degC after 24 hrs by broth dilution assay

Structure (SMILES) | MIC (Escherichia coli) [µM] | MIC (Pseudomonas aeruginosa) [µM] | MIC (Staphylococcus aureus) [µM] | MIC [1] [µM] | MIC (Candida albicans) [µM]
CCOC(=O)c1nnc2ccnn2c1N | > 400 | 160 (≈ 33.2 µg/mL) |  |  | 
CCCC(=O)c1nnc2c(C(N)=O)nnn2c1CCC | > 400 |  | 400 (≈ 111 µg/mL) |  | 
CC(=O)c1nnc2ccnn2c1C | > 400 | > 400 | > 400 | > 400 | > 400
CCCC(=O)c1nnc2c(-c3ccc(Cl)cc3)cnn2c1CCC | > 400 | 400 (≈ 137 µg/mL) |  |  | 
CCCC(=O)c1nnc2c(C(=O)OCC)cnn2c1CCC | > 400 |  |  |  | 400 (≈ 122 µg/mL)
CCCC(=O)c1nnc2c(C(N)=O)cnn2c1CCC | > 400 | > 400 | > 400 | > 400 | > 400
CCC(=O)c1nnc2c(C(N)=O)cnn2c1CC | > 400 | > 400 | > 400 | > 400 | > 400
CCC(=O)c1nnc2ccnn2c1CC | > 400 | > 400 | > 400 | > 400 | > 400
CCC(=O)c1nnc2c(Br)cnn2c1CC | > 400 |  |  | 160 (≈ 45.3 µg/mL) | 
CCC(=O)c1nnc2cc(-c3ccc(OC)cc3)nn2c1CC | > 400 | > 400 | > 400 | > 400 | > 400
N#Cc1nnc2ccnn2c1N | > 400 | > 400 | > 400 | > 400 | > 400
CCCc1c(C(=O)OCC)nnc2ccnn12 | > 400 | > 400 | > 400 | > 400 | > 400
CCCc1cnnc2ccnn12 | > 400 | > 400 | > 400 | > 400 | > 400
Cc1nnc2ccnn2c1C | > 400 | > 400 | > 400 | > 400 | > 400
CCCc1cnnc2c(Br)cnn12 | > 400 | > 400 | > 400 | > 400 | > 400
Cc1cnnc2ccnn12 | > 400 | > 400 | > 400 | > 400 | > 400
Cc1cnnc2c(Br)cnn12 | > 400 | > 400 | > 400 | > 400 | > 400
Cc1nnc2c(Br)cnn2c1C | > 400 | > 400 | > 400 | > 400 | > 400
CCCC(=O)c1nnc2nc(SCc3ccccc3)nn2c1CCC | > 400 |  | 400 (≈ 142 µg/mL) |  | 
CCCC(=O)c1nnc2nc(S(=O)(=O)Cc3ccccc3)nn2c1CCC | > 400 | > 400 | > 400 | > 400 | > 400
CCCC(=O)c1nnc2ncnn2c1CCC | > 400 | > 400 | > 400 | > 400 | > 400
CCCC(=O)c1nnc2nc(NC)nn2c1CCC | > 400 | > 400 | > 400 | > 400 | > 400
CCOC(=O)c1nnc2nccn2c1N | > 400 | > 400 | > 400 | > 400 | > 400
CCCC(=O)c1nnc2nccn2c1CCC | > 400 | > 400 | > 400 | > 400 | > 400
CCC(=O)c1nnc2nccn2c1CC | > 400 | > 400 | > 400 | > 400 | > 400
Cc1nnc2nccn2c1C | > 400 | > 400 | > 400 | > 400 | > 400
CCCC(=O)c1nnc2c(C(N)=O)ncn2c1CCC | > 400 | > 400 | > 400 | > 400 | > 400
CCC(=O)c1nnc2c(C(N)=O)ncn2c1CC | > 400 | > 400 | > 400 | > 400 | > 400
CC(=O)c1nnc2c(C(N)=O)ncn2c1C | > 400 | > 400 | > 400 | > 400 | > 400
